# Like-named read-outs stand apart in the source and are kept apart here.
# Legend:
# [1] = test system: A. baumannii KAB1544 and efflux overexpression mutants; experiment: Broth microdilution MIC, isogenic A. baumannii overexpression efflux mutants; assay type: cell-based; settings: for MIC: Acinetobacter baumannii
# Protocol: (§1) To further assess the role of efflux in SUL-DUR activity against Acinetobacter spp., two panels of A. baumannii isogenic strains were tested. The first consisted of 7 members of an A. baumannii transposon library ([28]) with single gene disruptions in the adeABC, adeIJK, or adeT loci as compared to the parent strain, AB5075. […] This panel of strains consists of four different point mutants in AdeR and five different point mutants in AdeS, which result in the upregulation of AdeABC expression. In addition, this panel contains chromosomal deletions of adeL and adeN, which result in overexpression of AdeFGH and AdeIJK, respectively ([29]).
# In contrast, sulbactam, SUL-DUR, and imipenem MIC values were unaffected by these mutants (Table 4).
# (§2) The AB5075 parent strain as well as transposon interrupted AdeABC, AdeIJK, and AdeT were purchased from the Manoil laboratory at the University of Washington from their arrayed transposon mutant collection ([28]). The KAB1544 parent as well as efflux pump regulator mutants and deletions were constructed as previously described ([29]).
# (§3) Antimicrobial susceptibility testing was performed using broth microdilution following standardized methods established by the Clinical Laboratory Standards Institute (CLSI) ([35], [36]). Quality control testing was performed as specified by CLSI using A. baumannii NCTC 13304 ([35]). MIC values were interpreted using CLSI breakpoints for all antimicrobial agents except those for which CLSI breakpoints are not available ([35]). SUL-DUR was tested as twofold dilutions of sulbactam in combination with a fixed concentration of 4 µg/mL durlobactam ([35]).
# [2] = test system: A. baumannii AB5075 and transposon mutants in efflux genes; experiment: Broth microdilution MIC, isogenic A. baumannii transposon mutants in efflux genes; assay type: cell-based; settings: for In vitro activity (MIC): tested in duplicate
# Protocol: as §1
# The parent and each isogenic mutant strain in both panels was measured for susceptibility to sulbactam, durlobactam, SUL-DUR, imipenem, and gentamicin. […].
# as §2, §3
# [3] = test system: ARC7093 (AdeJ [G288S]) versus NCTC 13304; experiment: Ethidium bromide uptake (accumulation) assay; assay type: cell-based, A. baumannii; settings: over 20 min; 8 µM EtBr; P < 0.0001
# Source text: This AdeJ variant has been previously described in the context of carbapenem resistance due to the overexpression of the AdeJ pump, although the association was only made based on genotype, not phenotype ([31]). The efflux capacity of ARC7093 was, therefore, compared to NCTC 13304, a SUL-DUR-susceptible clinical isolate with wild-type AdeIJK, in an ethidium bromide accumulation assay. […] Therefore, the AdeJ (G288S) variant may play a role in susceptibility to SUL-DUR in Acinetobacter spp.
# NCTC 13304 and ARC7093 were cultured overnight on Tryptic Soy Blood Agar plates. Single colonies were used to inoculate 2 mL of Mueller-Hinton Cation-adjusted Broth (MHBII) and grown overnight at 35°C with shaking. On the day of the experiment, the overnight culture was diluted 100-fold into a flask containing 20 mL of MHBII and grown under the same conditions to OD600 ~0.2. Two-mL aliquots of this logarithmic phase culture were centrifuged. The pellets were gently re-suspended in 2-mL of sterile phosphate-buffered saline (pH 7.0) containing 8 µM EtBr. The cells were transferred to a black-wall, clear-bottom 96-well microplate, and EtBr fluorescence (excitation—530 nm, emission—590 nm) was measured over a period of 20 min in a SpectraMax M5e plate reader (Molecular Devices). Statistical significance for the accumulation of ethidium bromide was determined using an unpaired t-test.
# [4] = test system: isogenic A. baylyi ADP1 panel encoding wildtype or mutant PBP3; experiment: Broth microdilution MIC, isogenic A. baylyi panel (PBP3 variants with or without overexpressed β-lactamases); assay type: cell-based; settings: for MIC: Acinetobacter baylyi, A. baylyi
# Protocol: To understand the effect of PBP3 variants on whole cell activity in the absence of other resistance determinants, the MIC values of sulbactam, SUL-DUR and comparator β-lactams were measured against an isogenic A. baylyi panel engineered to contain individual strains in which the endogenous PBP3 was replaced with the variant of interest.
# Each of the A. baylyi panel members were then transformed with plasmids that constitutively expressed five distinct, representative β-lactamases commonly found in Acinetobacter clinical isolates (TEM-1, ADC-30, OXA-23, OXA-24 or OXA-66) and evaluated for changes in antibiotic susceptibility. […] . […] .
# The isogenic A. baylyi panel used for chromosomal expression of various PBP3 mutants with or without constitutive expression of various β-lactamases were constructed as part of this study. The A. baylyi ADP1 PBP3 ORF was cloned into pUC19 with a gentamicin cassette inserted downstream of the PBP3 ORF for selection purposes. Additionally, 500 bp of flanking homology to the ADP1 genome were inserted upstream of the PBP3 ORF and downstream of the gentamicin cassette. […] Linear DNA consisting of the 500 bp upstream-PBP3-Gent-500 bp downstream fragment was cloned out of the pUC19 plasmid by PCR and used for transformation of the ADP1 strain. The strain was grown at 30°C overnight in LB medium shaking at 250 rpm. Seventy microliters of the overnight ADP1 culture were combined with 1 mL of fresh LB and 200 ng of linear DNA fragment and incubated for 5 h at 30°C and shaking at 200 rpm. Various dilutions of each culture were plated on LB agar supplemented with 10 µg/mL of gentamicin to select for transformants with successful chromosomal integrations. Integrants were verified by Sanger sequencing using purified genomic DNA.
# For the constitutive expression of various β-lactamases, ORFs of bla TEM-1, bla ADC-30, bla OXA-23, bla OXA-24, and bla OXA-66 were cloned by PCR from various clinical strains that encode these genes and inserted into the pWH1266 plasmid modified to encode a kanamycin cassette for selection. These plasmids along with an empty vector were used to transform each of the A. baylyi ADP1 strains engineered above that encode wild-type PBP3 or variants. Transformations were carried out as done above with selection on LB agar supplemented with 20 µg/mL of kanamycin.
# as §3
# [5] = test system: A. baumannii wild-type PBP3; experiment: Acylation rate constant (kinact/Ki), fluorescence anisotropy competition with BOCILLIN; settings: Wildtype PBP3
# A. baumannii PBP3 S395F [6] = experiment: as above; settings: variant data from McLeod et al. (2018)
# A. baumannii PBP3 H370Y = experiment: as above
# A. baumannii PBP3 N392T = experiment: as above
# A. baumannii PBP3 N377Y = experiment: as above
# A. baumannii PBP3 S395F [7] = test system: A. baumannii PBP3 S395F; set-up: method as in McLeod et al. (2018); settings: average ± SD, ref McLeod et al. (2018); cited from earlier work
# A. baumannii PBP3 S390T [8] = experiment: Acylation rate constant (kinact/Ki), fluorescence anisotropy competition with BOCILLIN; settings: variant data from McLeod et al. (2018)
# A. baumannii PBP3 Q488K = experiment: as above
# A. baumannii PBP3 S390T [9] = test system: A. baumannii PBP3 S390T; set-up: method as in McLeod et al. (2018); settings: average ± SD, ref McLeod et al. (2018); cited from earlier work
# [10] = AdeR A91V, AdeABC overexpressed, read-out: MIC
# [11] = AdeR D20N, AdeABC overexpressed, read-out: MIC
# [12] = AdeR E219A, AdeABC overexpressed, read-out: MIC
# [13] = AdeR P116L, AdeABC overexpressed, read-out: MIC
# [14] = AdeS A94V, AdeABC overexpressed, read-out: MIC
# [15] = AdeS G30D, AdeABC overexpressed, read-out: MIC
# [16] = AdeS G103D, AdeABC overexpressed, read-out: MIC
# [17] = AdeS R152K, AdeABC overexpressed, read-out: MIC
# [18] = AdeS T153M, AdeABC overexpressed, read-out: MIC
# [19] = Parent (KAB1544), no efflux pump overexpressed, read-out: MIC
smiles,measurement,setting,value
CNC(C)C1CCC(N)C(OC2C(N)CC(N)C(OC3OCC(C)(O)C(NC)C3O)C2O)O1 (stereo not shown) [gentamicin],MIC,[1]; [10],32 µg/mL
same,MIC,[1]; [11],16 µg/mL
same,MIC,[1]; [12],2 µg/mL
same,MIC,[1]; [13],16 µg/mL
same,MIC,[1]; [14],16 µg/mL
same,MIC,[1]; [15],32 µg/mL
same,MIC,[1]; [16],2 µg/mL
same,MIC,[1]; [17],16 µg/mL
same,MIC,[1]; [18],32 µg/mL
same,MIC,[1]; [19],2 µg/mL
same,MIC,"[1]; ΔadeL, AdeFGH overexpressed",2 µg/mL
same,MIC,"[1]; ΔadeN, AdeIJK overexpressed",2 µg/mL
same,change in MIC values relative to the parent strain,[1]; {},8- to 16 fold
same,MIC shift as compared to the parent strain,"[2]; AdeA disruption, AB5075",> 64 fold
same,MIC shift as compared to the parent strain,"[2]; AdeB disruption, AB5075",> 8 fold
same,In vitro activity (MIC),[2]; Parent (AB5075),> 64 µg/mL
same,In vitro activity (MIC),[2]; adeA::tn in AB5075,1 µg/mL
same,In vitro activity (MIC),[2]; adeB::tn in AB5075,8 µg/mL
same,In vitro activity (MIC),[2]; adeC::tn in AB5075,> 64 µg/mL
same,In vitro activity (MIC),[2]; adeI::tn in AB5075,> 64 µg/mL
same,In vitro activity (MIC),[2]; adeJ::tn in AB5075,> 64 µg/mL
same,In vitro activity (MIC),[2]; adeK::tn in AB5075,> 64 µg/mL
same,In vitro activity (MIC),[2]; adeT::tn in AB5075,> 64 µg/mL
CC[n+]1c(-c2ccccc2)c2cc(N)ccc2c2ccc(N)cc21 [ethidium bromide],accumulation of ethidium bromide in ARC7093 versus NCTC 13304,[3],significantly lower
C[C@H]1[C@H](NC(=O)/C(=N\OC(C)(C)C(=O)O)c2csc(N)n2)C(=O)N1S(=O)(=O)O [aztreonam],MIC,"[4]; PBP3 H370Y, overexpressed ADC-30",32 µg/mL
same,MIC,"[4]; PBP3 H370Y, overexpressed OXA-23",64 µg/mL
same,MIC,"[4]; PBP3 H370Y, overexpressed OXA-24",64 µg/mL
same,MIC,"[4]; PBP3 H370Y, overexpressed OXA-66",64 µg/mL
same,MIC,"[4]; PBP3 H370Y, overexpressed TEM-1",64 µg/mL
same,MIC,"[4]; PBP3 H370Y, β-lactamase None (empty vector)",64 µg/mL
same,MIC,"[4]; PBP3 Wildtype, overexpressed ADC-30, read-out: MIC",32 µg/mL
same,MIC,"[4]; PBP3 Wildtype, overexpressed OXA-23, read-out: MIC",64 µg/mL
same,MIC,"[4]; PBP3 Wildtype, overexpressed OXA-24, read-out: MIC",32 µg/mL
same,MIC,"[4]; PBP3 Wildtype, overexpressed OXA-66, read-out: MIC",32 µg/mL
same,MIC,"[4]; PBP3 Wildtype, overexpressed TEM-1, read-out: MIC",32 µg/mL
same,MIC,"[4]; PBP3 Wildtype, β-lactamase None (empty vector), read-out: MIC",32 µg/mL
same,changes in MIC values in the presence of β-lactamase,"[4]; wildtype PBP3 strain, five overexpressed β-lactamases",≤ 2 fold
same,% WT,[5],100%
same,k inact/K i,[5]; average ± SD,700 ± 100 ([10]) M^-1s^-1
same,% WT,A. baumannii PBP3 S395F [6],15.7%
same,% WT,A. baumannii PBP3 H370Y,61.4%
same,k inact/K i,A. baumannii PBP3 H370Y; average ± SD,430 ± 30 ([2]) M^-1s^-1
same,% WT,A. baumannii PBP3 N392T,22.9%
same,k inact/K i,A. baumannii PBP3 N392T; average ± SD,160 ± 20 ([2]) M^-1s^-1
same,% WT,A. baumannii PBP3 N377Y,72.9%
same,k inact/K i,A. baumannii PBP3 N377Y; average ± SD,510 ± 60 ([2]) M^-1s^-1
same,k inact/K i,A. baumannii PBP3 S395F [7],110 ± 20 ([3]) M^-1s^-1
same,% WT,A. baumannii PBP3 S390T [8],128.6%
same,% WT,A. baumannii PBP3 Q488K,65.7%
same,k inact/K i,A. baumannii PBP3 Q488K; average ± SD,460 ± 50 ([2]) M^-1s^-1
same,k inact/K i,A. baumannii PBP3 S390T [9],900 ± 300 ([3]) M^-1s^-1
CC1=C[C@@H]2CN(C(=O)N2OS(=O)(=O)O)[C@@H]1C(N)=O [durlobactam],MIC,[1]; [10],32 µg/mL
same,MIC,[1]; [11],64 µg/mL
same,MIC,[1]; [12],128 µg/mL
same,MIC,[1]; [13],64 µg/mL
same,MIC,[1]; [14],64 µg/mL
same,MIC,[1]; [15],64 µg/mL
same,MIC,[1]; [16],64 µg/mL
same,MIC,[1]; [17],64 µg/mL
same,MIC,[1]; [18],32 µg/mL
same,MIC,[1]; [19],128 µg/mL
same,MIC,"[1]; ΔadeL, AdeFGH overexpressed",64 µg/mL
same,MIC,"[1]; ΔadeN, AdeIJK overexpressed",128 µg/mL
same,In vitro activity (MIC),[2]; Parent (AB5075),128 µg/mL
same,In vitro activity (MIC),[2]; adeA::tn in AB5075,64 µg/mL
same,In vitro activity (MIC),[2]; adeB::tn in AB5075,256 µg/mL
same,In vitro activity (MIC),[2]; adeC::tn in AB5075,256 µg/mL
same,In vitro activity (MIC),[2]; adeI::tn in AB5075,64 µg/mL
same,In vitro activity (MIC),[2]; adeJ::tn in AB5075,32 µg/mL
same,changes in MIC values as compared to the parent strain,"[2]; adeK::Tn mutant, AB5075",4 fold
same,In vitro activity (MIC),[2]; adeK::tn in AB5075,32 µg/mL
same,In vitro activity (MIC),[2]; adeT::tn in AB5075,128 µg/mL
same,changes in MIC values as compared to the parent strain,[2]; {},4 fold
